The test system of assay [1] is SCC-1 cells. Nature of the assay: Cell proliferation assays of SCC-1 cells (MTS or cell counting), Example 8. Type of assay: cell-based, human. Conditions: for rates of growth over the 4 day period: slopes of growth curves; for difference in cell number between reversal group and group continuing drug exposure: within 48 hr after withdrawal. As to the method:
(§1) The UM-SCC-1 cell line (SCC-1) was derived from a well-differentiated recurrent squamous cell carcinoma in the floor of the mouth of a person (25). This cell line was obtained from The University of Michigan, Cancer Research Laboratory (Thomas E. Carey, Ph.D., Director). CAL-27 human squamous cell carcinoma cell line, derived from a poorly differentiated carcinoma of the tongue in a person ([…]), was obtained from the American Type Culture Collection (Manassas, Va.). Both cell lines were grown in Dulbecco's MEM (modified) media supplemented with 10% fetal calf serum, 1.2% sodium bicarbonate, and antibiotics (5,000 Units/ml penicillin, 5 mg/ml streptomycin, 10 mg/ml neomycin). The cell cultures were maintained in a humidified atmosphere of 7% CO2/93% air at 37° C.
(§2) Cells were seeded at equivalent amounts into either 6-well or 96-well plates (Falcon) and counted 24 hr later to determine plating efficiency.
The dosage of carboplatin selected was based on previous reports (27, 28), as well as preliminary studies in our laboratory.
(§3) Cell number was recorded either by using the MTS proliferation bioassay (Cell Titer 96 One Solution, Promega, Madison, Wis.) and measuring absorbency after 4 hr on a Biorad (Model 3550) plate reader at 490 nm with a 750 nm background absorbance screening, or by directly counting cells. The MTS assay utilized 10 wells/treatment. For manual counts, cells were harvested by trypsinization with 0.25% trypsin/0.53 mM EDTA, centrif uiged, and counted with a hemacytometer. Cell viability was determined by trypan blue staining. At least two aliquots per well, and 4-10 wells/treatment, were counted at each time for manual counting.
For some experiments, the rate of growth over a 96-hr period of time was calculated using linear regression analyses. The slopes of the lines (number of cells/hr) were compared by analysis of variance. All calculations were performed with GraphPad Prism software.

Assay [2] has as its system SCC-1 cells. In words: Growth curves of SCC-1 cells, cell proliferation (MTT) assay, absorbency.
Source text: Cells were counted using a standard MTT assay. In general, each data point represents the average absorbency taken from 10 wells/treatment; error bars represent the S.E.M.
The test system of a further assay is CAL-27 cells. In words: Cell proliferation assay of CAL-27 cells. The format is cell-based, human. Conditions: 48 hr; for fewer cells than in control cultures: OGF 10^−6 M and/or paclitaxel 10^−10 M. As to the method: as §1, §2, §3
The test system of assay [3] is SCC-1 cells. Nature of the assay: DNA synthesis, BrdU incorporation into SCC-1 cells. Conditions: 3 days of drug treatment. Type of assay: cell-based, human. Here is the method: To examine DNA synthesis, SCC-1 cells were seeded onto 22 mm diameter coverglasses placed in 6-well plates (3×10^3 cells/coverglass). […] Three hours prior to fixing cells, 30 μM BrdU was added to cultures. At appropriate times, cells were rinsed, fixed in 10% neutral buffered formalin, and stained with antibodies to BrdU (Roche, Indianapolis, Ind.). The number of positive cells was recorded using fluorescence microscopy. At least 1000 cells/treatment at each time were counted.
(Dividing cells build labelled thymidine or BrdU into new DNA.)

A further assay has as its target T1, OGFr (Homo sapiens, UniProt Q9NZT2).
T1 construct: Tumor tissues from some mice in each treatment group were removed at the time of death; from tissue; host or cells: SCC-1 squamous cell carcinoma xenograft tumors grown subcutaneously in nude mice
T1 sequence (Q9NZT2 1-677): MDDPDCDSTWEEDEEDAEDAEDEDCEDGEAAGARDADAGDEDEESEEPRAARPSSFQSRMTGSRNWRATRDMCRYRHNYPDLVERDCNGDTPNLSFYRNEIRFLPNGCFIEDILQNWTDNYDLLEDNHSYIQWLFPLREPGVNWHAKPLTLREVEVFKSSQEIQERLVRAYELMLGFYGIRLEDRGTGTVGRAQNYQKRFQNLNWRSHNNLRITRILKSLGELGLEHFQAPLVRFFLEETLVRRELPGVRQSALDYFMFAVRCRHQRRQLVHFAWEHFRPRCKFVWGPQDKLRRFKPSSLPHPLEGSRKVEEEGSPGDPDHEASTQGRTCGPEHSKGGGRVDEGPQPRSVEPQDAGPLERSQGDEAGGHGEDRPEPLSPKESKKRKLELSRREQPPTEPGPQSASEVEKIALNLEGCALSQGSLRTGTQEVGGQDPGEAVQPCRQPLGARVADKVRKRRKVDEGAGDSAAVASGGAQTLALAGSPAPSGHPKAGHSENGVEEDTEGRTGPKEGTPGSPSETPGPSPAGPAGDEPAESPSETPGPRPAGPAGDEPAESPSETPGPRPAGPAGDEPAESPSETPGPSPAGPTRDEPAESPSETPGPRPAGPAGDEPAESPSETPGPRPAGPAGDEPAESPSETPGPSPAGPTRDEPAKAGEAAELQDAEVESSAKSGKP
In words: Receptor binding analysis of OGFr in SCC-1 tumors from treated mice. Conditions: OGFr in SCC-1 tumors from mice of the treatment group; means ± SEM. As to the method: Tumor tissues from some mice in each treatment group were removed at the time of death, washed free of blood and connective tissue, and immediately frozen in liquid nitrogen. Tissues were assayed following the procedures published previously [ 16]. Saturation binding isotherms were generated using GraphPad Prism software; binding affinity (Kd) and capacity (Bmax) values were provided by the computer software.

In assay [4] the test system is SCC-1 cells. In words: Apoptosis, caspase-3 activity by flow cytometry in SCC-1 cells. The format is cell-based, human. Conditions: for percentage of caspase-3 positive cells: SCC-1, one day of treatment. As to the method: Caspase-3-FITC positive staining was used to characterize early stages of apoptosis (29). SCC-1 cells were seeded into 6-well plates and treated with drugs beginning 24 hr later; drugs and media were replaced daily. Cells were harvested after 1, 3 and 6 days of drug treatment, and prepared according to manufacturer's recommendations for FACS analysis (FACS cell sorter with a 15 mW argon ion laser at 488 nm; Becton, Dickinson and Company, Franklin Lakes, N.J.). […] Three samples from each treatment were analyzed at each time point. The percent gated cells recorded by flow cytometry was considered caspase positive.

[5] abbreviates: SCC-1, 48 hr, OGF 10^−6 M and/or paclitaxel 10^−8 M.
The mark [6] stands for this setting: SCC-1, 72 hr, OGF 10^−6 M and/or paclitaxel 10^−8 M.
[7] abbreviates: SCC-1, 96 hr, OGF 10^−6 M and/or paclitaxel 10^−8 M.
[8] abbreviates: 48 h, paclitaxel 10^−7 M and/or OGF 10^−6 M.
[9] abbreviates: 72 h, paclitaxel 10^−7 M and/or OGF 10^−6 M.
Setting [10] is: 96 h, paclitaxel 10^−7 M and/or OGF 10^−6 M.

Here are results for 2 molecules from US8003630B2, “Combinatorial therapies for the treatment of neoplasias using the opioid growth factor receptor” (The Penn State Research Foundation, priority 2004, dated 2011).

Consider `CC(=O)O[C@H]1C(=O)[C@@]2(C)[C@H]([C@H](OC(=O)c3ccccc3)[C@]3(O)C[C@H](OC(=O)[C@H](O)[C@@H](NC(=O)c4ccccc4)c4ccccc4)C(C)=C1C3(C)C)[C@]1(OC(C)=O)CO[C@@H]1C[C@@H]2O` [paclitaxel], for which the inhibition – broadly, the percentage by which the read-out fell short of the control – at 0.01 µM with SCC-1 cells [1] (Homo sapiens, read-out: inhibition of cell growth relative to control levels) was 8.8 to 26%. Further, the “reduction of cell number from control levels” value is around 33% in the assay on SCC-1 cells [1] (setting [5]), 25% with SCC-1 cells [1] (setting [6]) and 51% in the assay with SCC-1 cells [1] (setting [7]). Also, in the assay with SCC-1 cells [1] (SCC-1), the “rates of growth over the 4 day period” value was “notably reduced from control values”. Besides, the “difference in cell number between reversal group and group continuing drug exposure” value in the assay on SCC-1 cells [1] (SCC-1) is on record as “did not differ”. Also, the “decrease in cell number from control levels” value in the assay with SCC-1 cells [2] (24 h, paclitaxel 10^−7 M and/or OGF 10^−6 M) is on record as 14.2%; with SCC-1 cells [2] (setting [8]) it was 34.4%; in the assay on SCC-1 cells [2] (setting [9]) it was 58%; in the assay with SCC-1 cells [2] (setting [10]), 70%; with SCC-1 cells [2] (96 h, paclitaxel 10^−8 M alone or with OGF 10^−6 M), 19.3%. The “fewer cells than in control cultures” value in the assay with CAL-27 cells is recorded as 35%. In addition, the “growth depressed from control levels” value in the assay with CAL-27 cells (paclitaxel 10^−7 M) amounted to 66%; with CAL-27 cells (paclitaxel 10^−8 M), 53%; with CAL-27 cells (paclitaxel 10^−9 M), 44%; in the assay with CAL-27 cells (paclitaxel 10^−10 M), 22%. Besides, the “decrease in the number of BrdU positive cells from control levels” value with SCC-1 cells [3] is given as 24%. In addition, the “Bmax, fmol/mg protein” value at OGFr is listed as 27.8 ± 1.6 fmol/mg protein. Moreover, in the assay on SCC-1 cells [4] (6 days of drug exposure), the “fraction of SCCHN cells apoptotic” value is recorded as “over one-half”. Also, the “percentage of caspase-3 positive cells” value with SCC-1 cells [4] was “negligible”.

On to [Met^5]-enkephalin [OGF], for which the “reduction of cell number from control levels” value in the assay on SCC-1 cells [1] (SCC-1, MTS, 48-96 hr, OGF 10^−6 M alone or with carboplatin 10^−7 M) is reported as 8-10%; in the assay with SCC-1 cells [1] (setting [5]), “approximately 10%”; in the assay on SCC-1 cells [1] (setting [6]), 10%; in the assay with SCC-1 cells [1] (setting [7]) it was 23%. In addition, the “decrease from control levels in absorbency readings” value in the assay on SCC-1 cells [1] (SCC-1, opioids 10^−6 M daily) is recorded as 19%. The “rates of growth over the 4 day period” value in the assay with SCC-1 cells [1] (SCC-1) was “notably reduced from control values”. The “difference in cell number between reversal group and group continuing drug exposure” value in the assay on SCC-1 cells [1] (SCC-1) is 16%. Besides, the “decrease in cell number from control levels” value with SCC-1 cells [2] (setting [8]) came out at 11.9%; with SCC-1 cells [2] (setting [9]), 6.7%; in the assay on SCC-1 cells [2] (setting [10]), 12.7%. The “fewer cells than in control cultures” value with CAL-27 cells stood at 25%. The “decrease in the number of BrdU positive cells from control levels” value with SCC-1 cells [3] was found to be 61%. Also, the “Bmax, fmol/mg protein” value on OGFr came out at 27.2 ± 2.2 fmol/mg protein. In addition, the “percentage of caspase-3 positive cells” value in the assay on SCC-1 cells [4] is “negligible”.
